Laboratory results: patent US4562191A (priority 1983, dated 1985)
“And” between values parts separate entries of the source, which are not always exact repeats. Identical values can stand only once.

System: Male CD-1 albino mice
Parameters: species or system mouse (CD-1 albino)
Details: mouse, in vivo

| Compound | No. of animals exhibiting contortions out of total | Mean number of contortions ± S.D. |
| --- | --- | --- |
| CCCCC1C(=O)N(c2ccccc2)N(c2ccccc2)C1=O [Phenylbutazone] | 3/6 and 5/6 | – |
| CCC(=O)O[C@](Cc1ccccc1)(c1ccccc1)[C@H](C)CN(C)C [D-propoxyphene] | 2/6 | 2.5 ± 2.1 |
| CC(=O)Oc1ccccc1C(=O)O [Acetyl-salicylic acid, acetylsalicylic acid] | 4/6 | 13.5 ± 11.1 |
